From patent publication US20250290928A1, “METHOD, KIT AND DEVICE FOR DETECTING EXTRACELLULAR VESICLES” (priority 2022, published 2025)

What was measured:
[1] = system: CD9/CD63/CD81 in the extracellular vesicles; experiment: Digital CD9/CD63/CD81 sandwich detection with biotinylated detection antibody and streptavidin-conjugated β-galactosidase; assay type: binding, Human; conditions: Example 33, 30° C., 4 h
Procedure: An anti-CD9 antibody (ab58989), an anti-CD63 antibody (ab59479), and an anti-CD81 antibody (ab59477) were buffer-exchanged into Biotinylation Reaction Buffer to provide an antibody solution. A biotinylation reagent NHS-PEG4-Biotin was added to the solution, and the mixture was stirred and then subjected to a reaction at room temperature for 30 minutes. After that, the resultant was washed with Biotinylation Reaction Buffer, and then recovered with Biotinylation Reaction Buffer to provide a biotinylated detection antibody solution. The biotinylated detection antibody solution was stored at 4° C. until use.
(§1) For detection of MMP14 activity, 1 mM Custom #2 and a 100 µM resorufin β-D-galactopyranoside solution were diluted with the buffer (4) to prepare a MMP14 and CD9/CD63/CD81 cocktail detection solution (1) containing 10 μM Custom #2 and 5 μM resorufin β-D-galactopyranoside. In addition, the solution was diluted 2-fold with the buffer (4) to prepare a detection solution (2). Nonfluorescent resorufin β-D-galactopyranoside is degraded by β-galactosidase to produce fluorescent resorufin. In this case, the maximum wavelengths of excitation and fluorescence of resorufin are 570 nm and 585 nm, respectively.
The observation of fluorescence derived from each fluorescent substance was performed under the same conditions as in Example 19 to acquire a fluorescence image. In this case, a TRITC filter was used in the observation of the fluorescence from resorufin.

[2] = system: β-galactosidase activity inherent in the MDA-MB-231-derived extracellular vesicles; experiment: Evaluation of β-galactosidase activity of MDA-MB-231-derived extracellular vesicles in 96-well plate; assay type: biochemical, Human; conditions: Example 33, 30° C., no CD9/CD63/CD81 detection system
Procedure: as §1, with “([…])” for “(4) to prepare a MMP14 and CD9/CD63/CD81 cocktail detection solution (1)”
In addition, 50 μL of the detection solution (1) was added to 50 μL of each of the prepared standard samples with seven concentrations and the sample for BG measurement, and the resultant solution was used in measurement of MMP14 activity and β-galactosidase activity with a 96-well plate.
Evaluation was performed in the same manner as in Example 1 except that the reaction temperature was set to 30° C. ΔRFU was calculated by subtracting the measured value of the sample for BG measurement from the measured value of each of the samples. In this case, resorufin produced by β-galactosidase activity was simultaneously measured at an excitation wavelength of 545±20 nm and a fluorescence wavelength of 590±20 nm, and ΔRFU was calculated similarly.

O=c1ccc2nc3ccc(O[C@@H]4O[C@H](CO)[C@H](O)[C@H](O)[C@H]4O)cc3oc-2c1 [resorufin β-D-galactopyranoside]
Expected value λ (CD9/CD63/CD81) ([1]; EV 0 (BG)): 0.00927
Number of positives (CD9/CD63/CD81) ([1]; EV 0 (BG)): 20
Expected value λ (CD9/CD63/CD81) ([1]; EV X1 (sample 10 μg/mL)): 2.86
Number of positives (CD9/CD63/CD81) ([1]; EV X1 (sample 10 μg/mL)): 2,166
Expected value λ (CD9/CD63/CD81) ([1]; EV X1/3): 1.87
Number of positives (CD9/CD63/CD81) ([1]; EV X1/3): 2,315
Expected value λ (CD9/CD63/CD81) ([1]; EV X1/9): 0.750
Number of positives (CD9/CD63/CD81) ([1]; EV X1/9): 1,544
Expected value λ (CD9/CD63/CD81) ([1]; EV X1/27): 0.339
Number of positives (CD9/CD63/CD81) ([1]; EV X1/27): 725
Expected value λ (CD9/CD63/CD81) ([1]; EV X1/81): 0.0928
Number of positives (CD9/CD63/CD81) ([1]; EV X1/81): 144
Expected value λ (CD9/CD63/CD81) ([1]; EV X1/243): 0.0427
Number of positives (CD9/CD63/CD81) ([1]; EV X1/243): 78
Expected value λ (CD9/CD63/CD81) ([1]; EV X1/729): 0.0240
Number of positives (CD9/CD63/CD81) ([1]; EV X1/729): 44
β-galactosidase activity (temporal changes in fluorescence intensity) [2]: the activity was not able to be detected at all
